Target: T1, mutant G12C K-RAS (Homo sapiens, UniProt P01116, G12C)
T1 construct: made in house; host or cells: E. coli BL21
Test: covalent adduct formation (CAF) with mutant G12C K-RAS
Format: binding
Conditions: for % CAF @ 10 μM,1 h: Table 6; for % CAF (60 min): after 60 minutes at 10 micromolar
Protocol: Embodiments disclosed herein are further illustrated by the following examples in Tables 1-4 and the Examples hereinbelow. The Tables indicate the compound number, structure, the observed mass spectral molecular weight peak, and covalent adduct formation (CAF) with a mutant G12C K-RAS after 60 minutes at a concentration of 10 micromolar.

[1] = Table 2, Pyrimidone Core-Morpholine Substituted
[2] = Table 1, Pyrimidone Core-Morpholine Unsubstituted

Row | Compound | % CAF @ 10 μM,1 h | also measured
1 | C=CC(=O)N1C[C@H](C)N(c2nc(=O)n3c4c(c(-c5cccc6ccccc56)c(Cl)cc24)OC[C@H]3Cn2cccn2)C[C@H]1C (atropisomer, axis not shown) [Example 306, (3R,10R)-3-((1H-pyrazol-1-yl)methyl)-7-((2S,5R)-4-acryloyl-2,5-dimethylpiperazin-1-yl)-9-chloro-10-(naphthalen-1-yl)-2,3-dihydro-5H-[1,4]oxazino[2,3,4-ij]quinazolin-5-one] | 73.5% | –
2 | C=CC(=O)N1C[C@H](C)N(c2nc(=O)n3c4c(c(-c5cccc6ccccc56)c(Cl)cc24)OC[C@@H]3CN2CCN(C)CC2)C[C@H]1C (atropisomer, axis not shown) [Example 308, (3S,10S)-7-((2S,5R)-4-acryloyl-2,5-dimethylpiperazin-1-yl)-9-chloro-3-((4-methylpiperazin-1-yl)methyl)-10-(naphthalen-1-yl)-2,3-dihydro-5H-[1,4]oxazino[2,3,4-ij]quinazolin-5-one] | 22.8% | –
3 | C=CC(=O)N1C[C@H](C)N(c2nc(=O)n3c4c(c(-c5cccc6ccccc56)c(Cl)cc24)OC[C@@H]3CN2CCN(C)CC2)C[C@H]1C (atropisomer, axis not shown) [Example 309, (3S,10R)-7-((2S,5R)-4-acryloyl-2,5-dimethylpiperazin-1-yl)-9-chloro-3-((4-methylpiperazin-1-yl)methyl)-10-(naphthalen-1-yl)-2,3-dihydro-5H-[1,4]oxazino[2,3,4-ij]quinazolin-5-one] | 94.4% | –
4 | C=CC(=O)N1C[C@H](C)N(c2nc(=O)n3c4c(c(-c5c(O)cccc5F)c(Cl)cc24)OC[C@@H]3CN2CCN(C)CC2)C[C@H]1C (atropisomer, axis not shown) [Example 314, (3S,10S)-7-((2S,5R)-4-acryloyl-2,5-dimethylpiperazin-1-yl)-9-chloro-10-(2-fluoro-6-hydroxyphenyl)-3-((4-methylpiperazin-1-yl)methyl)-2,3-dihydro-5H-[1,4]oxazino[2,3,4-ij]quinazolin-5-one] | 74.8% | –
5 | C=CC(=O)N1C[C@H](C)N(c2nc(=O)n3c4c(c(-c5cccc6ccccc56)c(Cl)cc24)OC[C@H]3Cn2ccnc2)C[C@H]1C (atropisomer, axis not shown) [Example 317, (3R,10R)-3-((1H-imidazol-1-yl)methyl)-7-((2S,5R)-4-acryloyl-2,5-dimethylpiperazin-1-yl)-9-chloro-10-(naphthalen-1-yl)-2,3-dihydro-5H-[1,4]oxazino[2,3,4-ij]quinazolin-5-one] | 72.8% | –
6 | C=CC(=O)N1C[C@H](C)N(c2nc(=O)n3c4c(c(-c5cccc6ccccc56)c(Cl)cc24)OC[C@H]3Cn2ccnc2)C[C@H]1C (atropisomer, axis not shown) [Example 318, (3R,10S)-3-((1H-imidazol-1-yl)methyl)-7-((2S,5R)-4-acryloyl-2,5-dimethylpiperazin-1-yl)-9-chloro-10-(naphthalen-1-yl)-2,3-dihydro-5H-[1,4]oxazino[2,3,4-ij]quinazolin-5-one] | 70.6% | –
7 | C=CC(=O)N1C[C@H](C)N(c2nc(=O)n3c4c(c(-c5c(C)ccc6[nH]ncc56)c(Cl)cc24)OC[C@H]3Cn2cccn2)C[C@H]1C (atropisomer, axis not shown) [Example 319, (3R,10S)-3-((1H-pyrazol-1-yl)methyl)-7-((2S,5R)-4-acryloyl-2,5-dimethylpiperazin-1-yl)-9-chloro-10-(5-methyl-1H-indazol-4-yl)-2,3-dihydro-5H-[1,4]oxazino[2,3,4-ij]quinazolin-5-one] | 0% | –
8 | C=CC(=O)N1C[C@H](C)N(c2nc(=O)n3c4c(c(-c5c(C)ccc6[nH]ncc56)c(Cl)cc24)OC[C@H]3Cn2cccn2)C[C@H]1C (atropisomer, axis not shown) [Example 320, (3R,10R)-3-((1H-pyrazol-1-yl)methyl)-7-((2S,5R)-4-acryloyl-2,5-dimethylpiperazin-1-yl)-9-chloro-10-(5-methyl-1H-indazol-4-yl)-2,3-dihydro-5H-[1,4]oxazino[2,3,4-ij]quinazolin-5-one] | 94.2% | –
9 | C=CC(=O)N1C[C@H](C)N(c2nc(=O)n3c4c(c(-c5cccc6ccccc56)c(Cl)cc24)OC[C@H]3CCCN2C[C@@H]3C[C@H]2CO3)C[C@H]1C (atropisomer, axis not shown) [Example 322, (3R,10S)-3-(3-((1S,4S)-2-oxa-5-azabicyclo[2.2.1]heptan-5-yl)propyl)-7-((2S,5R)-4-acryloyl-2,5-dimethylpiperazin-1-yl)-9-chloro-10-(naphthalen-1-yl)-2,3-dihydro-5H-[1,4]oxazino[2,3,4-ij]quinazolin-5-one] | 78.5% | –
10 | C=CC(=O)N1C[C@H](C)N(c2nc(=O)n3c4c(c(-c5c(C)ccc6[nH]ncc56)c(Cl)cc24)OC[C@H]3CCCN2C[C@@H]3C[C@H]2CO3)C[C@H]1C (atropisomer, axis not shown) [Example 325, (3R,10S)-3-(3-((1S,4S)-2-oxa-5-azabicyclo[2.2.1]heptan-5-yl)propyl)-7-((2S,5R)-4-acryloyl-2,5-dimethylpiperazin-1-yl)-9-chloro-10-(5-methyl-1H-indazol-4-yl)-2,3-dihydro-5H-[1,4]oxazino[2,3,4-ij]quinazolin-5-one] | 0% | –
11 | C=CC(=O)N1C[C@H](C)N(c2nc(=O)n3c4c(c(-c5c(C)ccc6[nH]ncc56)c(Cl)cc24)OC[C@H]3CCCN2C[C@@H]3C[C@H]2CO3)C[C@H]1C (atropisomer, axis not shown) [Example 326, (3R,10R)-3-(3-((1S,4S)-2-oxa-5-azabicyclo[2.2.1]heptan-5-yl)propyl)-7-((2S,5R)-4-acryloyl-2,5-dimethylpiperazin-1-yl)-9-chloro-10-(5-methyl-1H-indazol-4-yl)-2,3-dihydro-5H-[1,4]oxazino[2,3,4-ij]quinazolin-5-one] | 94.2% | –
12 | C=CC(=O)N1CCN(c2nc(=O)n3c4c(c(-c5c(O)cccc5F)c(Cl)cc24)OC[C@@H]3CO)[C@@H](C)C1 (single isomer, unassigned) [Example 24] | – | % CAF (60 min) [1]: 0%
13 | C=CC(=O)N1CCN(c2nc(=O)n3c4c(c(-c5c(O)cccc5F)c(Cl)cc24)OC[C@@H]3CO)[C@@H](C)C1 (single isomer, unassigned) [Example 25] | – | % CAF (60 min) [1]: 84.7%
14 | C=CC(=O)N1C[C@H](C)N(c2nc(=O)n3c4c(c(-c5ccc(F)cc5F)c(Cl)cc24)OC[C@@H]3CN2CCC(F)(F)C2)C[C@H]1C (stereo in doubt) [Example 202] | 34.2% | –
15 | C=CC(=O)N1C[C@H](C)N(c2nc(=O)n3c4c(c(-c5ccc(F)cc5F)c(Cl)cc24)OCC3CN2CCC(F)(F)C2)C[C@H]1C (stereo in doubt) [Example 207, (3R)-7-((2S,5R)-4-acryloyl-2,5-dimethylpiperazin-1-yl)-9-chloro-10-(2,4-difluorophenyl)-3-((3,3-difluoropyrrolidin-1-yl)methyl)-2H-[1,4]oxazino[2,3,4-ij]quinazolin-5(3H)-one] | 85.6% | –
16 | C=CC(=O)N1C[C@H](C)N(c2nc(=O)n3c4c(c(-c5ccc(F)cc5F)c(Cl)cc24)OC[C@@H]3COC2CCN(C)C2)C[C@H]1C (stereo in doubt) [Example 313, (3S)-7-((2S,5R)-4-acryloyl-2,5-dimethylpiperazin-1-yl)-9-chloro-10-(2,4-difluorophenyl)-3-((((S)-1-methylpyrrolidin-3-yl)oxy)methyl)-2,3-dihydro-5H-[1,4]oxazino[2,3,4-ij]quinazolin-5-one] | 66.1% | –
17 | C=CC(=O)N1C[C@H](C)N(c2nc(=O)n3c4c(c(-c5ccc(F)cc5F)c(Cl)cc24)OC[C@@H]3COC2CCN(C)C2)C[C@H]1C (stereo in doubt) [Example 336, (3S)-7-((2S,5R)-4-acryloyl-2,5-dimethylpiperazin-1-yl)-9-chloro-10-(2,4-difluorophenyl)-3-((((S)-1-methylpyrrolidin-3-yl)oxy)methyl)-2H-[1,4]oxazino[2,3,4-ij]quinazolin-5(3H)-one] | 79% | –
18 | C=CC(=O)N1CCN(c2nc(=O)n3c4c(c(-c5c(O)cccc5F)c(Cl)cc24)OCC3)CC1 [Example 5, (S)-7-(4-acryloylpiperazin-1-yl)-9-chloro-10-(2-fluoro-6-hydroxyphenyl)-2H-[1,4]oxazino[2,3,4-ij]quinazolin-5(3H)-one] | – | % CAF (60 min) [2]: 87.6%
19 | C=CC(=O)N1CCN(c2nc(=O)n3c4c(c(N(C)c5ccccc5C)c(Cl)cc24)OCC3)CC1 [Example 6] | – | % CAF (60 min) [2]: 17.6%
20 | C=CC(=O)N1CCN(c2nc(=O)n3c4c(c(-c5c(C)ccc6[nH]ncc56)c(Cl)cc24)OCC3)CC1 [Example 7, (R)-7-(4-acryloylpiperazin-1-yl)-9-chloro-10-(5-methyl-1H-indazol-4-yl)-2H-[1,4]oxazino[2,3,4-ij]quinazolin-5(3H)-one] | – | % CAF (60 min) [2]: 79.6%
21 | C=CC(=O)N1CCN(c2nc(=O)n3c4c(c(-c5c(C)ccc6[nH]ncc56)c(Cl)cc24)OCC3)CC1 [Example 8, (S)-7-(4-acryloylpiperazin-1-yl)-9-chloro-10-(5-methyl-1H-indazol-4-yl)-2H-[1,4]oxazino[2,3,4-ij]quinazolin-5(3H)-one] | – | % CAF (60 min) [2]: 0%
22 | C=CC(=O)N1CCN(c2nc(=O)n3c4c(c(-c5c(C)ccc6[nH]nc(C)c56)c(Cl)cc24)OCC3)CC1 [Example 9, 7-(4-acryloylpiperazin-1-yl)-9-chloro-10-(3,5-dimethyl-1H-indazol-4-yl)-2H-[1,4]oxazino[2,3,4-ij]quinazolin-5(3H)-one] | – | % CAF (60 min) [2]: 72.6%

— US12162893B2 (Erasca, Inc., priority 2020, dated 2024)
